Assay: xn = mol fraction of the nth substance listed
Conditions: 100 kPa

CC(O)C(=O)[O-].CCOCCn1cc[n+](C)c1 + O
Conditions	electrical conductivity [S/m]	viscosity [mPa·s]
288.15 K, x1 = 0.8091	0.243	86.2
288.15 K, x1 = 0.8366	0.214	93.5
288.15 K, x1 = 0.87	0.185	103
288.15 K, x1 = 0.9014	0.157	110.4
288.15 K, x1 = 0.9386	0.127	119.7
288.15 K, x1 = 1	0.082	132.7
293.15 K, x1 = 0.87	0.229	80.3
293.15 K, x1 = 0.9386	0.172	90.8
293.15 K, x1 = 1	0.123	99.1
298.15 K, x1 = 0.8091	0.336	52.9
298.15 K, x1 = 0.8366	0.306	56.21
298.15 K, x1 = 0.9014	0.248	63.93
298.15 K, x1 = 0.9386	0.218	68.22
298.15 K, x1 = 1	0.171	74.1
303.15 K, x1 = 0.8091	0.389	41.86
303.15 K, x1 = 0.8366	0.358	44.21
303.15 K, x1 = 0.87	0.33	47.25
303.15 K, x1 = 0.9014	0.302	49.83
303.15 K, x1 = 1	0.228	56.72
308.15 K, x1 = 0.9014	0.397	37.68
308.15 K, x1 = 0.9386	0.368	40.01
308.15 K, x1 = 1	0.314	43.14
313.15 K, x1 = 0.8091	0.572	25.13
313.15 K, x1 = 0.8366	0.544	26.5
313.15 K, x1 = 0.87	0.516	28.21
313.15 K, x1 = 0.9014	0.488	29.62
313.15 K, x1 = 0.9386	0.463	31.44
313.15 K, x1 = 1	0.418	33.82
318.15 K, x1 = 0.8091	0.713	18.65
318.15 K, x1 = 0.8366	0.681	19.82
318.15 K, x1 = 0.87	0.648	21.2
318.15 K, x1 = 0.9386	0.587	24.02
318.15 K, x1 = 1	0.536	26.08

Reference: a compilation of properties of binary mixtures (doi:10.1016/j.molliq.2022.118621)
